System: 292921-168-R tumor spheroid viability
Test: Anticancer human tumor 292921-168-R patient-derived pancreatic carcinoma cell line growth inhibition
Conditions: spheroids with HUVEC and MSC; for IC50: curve of first compound; for viability, T/C: stronger effect = lower value
How it was run: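 Complex spheroids of malignant cells with endothelial cells and mesenchymal stem cells; agents alone or combined, from near clinical Cmax (or 10 microM if unknown) down in half-log steps, 0.25% DMSO final.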
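Further: spheroids exposed to compounds for 7 days.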

Cn1ncnc1[C@H]1c2n[nH]c(=O)c3cc(F)cc(c23)N[C@@H]1c1ccc(F)cc1 + Cn1nnc2c(C(N)=O)ncn2c1=O
IC50 (second compound 1 µM): 0.393 µM | IC50 (second compound 3.16 µM): 0.439 µM | IC50 (second compound 10 µM): 0.143 µM | IC50 (second compound 31.6 µM): 0.019 µM | IC50 (second compound 100 µM): < 0.00949 µM | viability, T/C (second compound 1 µM, first compound 0.00949 µM): 88.4% | viability, T/C (second compound 1 µM, first compound 0.03 µM): 81.3% | viability, T/C (second compound 1 µM, first compound 0.0949 µM): 73.8% | viability, T/C (second compound 1 µM, first compound 0.3 µM): 58.8% | viability, T/C (second compound 1 µM, first compound 0.949 µM): 27.7% | viability, T/C (second compound 1 µM, first compound 3 µM): 9.76% | viability, T/C (second compound 3.16 µM, first compound 0.00949 µM): 81.1% | viability, T/C (second compound 3.16 µM, first compound 0.03 µM): 82% | viability, T/C (second compound 3.16 µM, first compound 0.0949 µM): 73% | viability, T/C (second compound 3.16 µM, first compound 0.3 µM): 59.5% | viability, T/C (second compound 3.16 µM, first compound 0.949 µM): 32% | viability, T/C (second compound 3.16 µM, first compound 3 µM): 11.1% | viability, T/C (second compound 10 µM, first compound 0.00949 µM): 75.1% | viability, T/C (second compound 10 µM, first compound 0.03 µM): 68.1% | viability, T/C (second compound 10 µM, first compound 0.0949 µM): 55.8% | viability, T/C (second compound 10 µM, first compound 0.3 µM): 39.2% | viability, T/C (second compound 10 µM, first compound 0.949 µM): 23.3% | viability, T/C (second compound 10 µM, first compound 3 µM): 9.97% | viability, T/C (second compound 31.6 µM, first compound 0.00949 µM): 58.4% | viability, T/C (second compound 31.6 µM, first compound 0.03 µM): 44.4% | viability, T/C (second compound 31.6 µM, first compound 0.0949 µM): 31.9% | viability, T/C (second compound 31.6 µM, first compound 0.3 µM): 24% | viability, T/C (second compound 31.6 µM, first compound 0.949 µM): 15.8% | viability, T/C (second compound 31.6 µM, first compound 3 µM): 8.83% | viability, T/C (second compound 100 µM, first compound 0.00949 µM): 24.2% | viability, T/C (second compound 100 µM, first compound 0.03 µM): 19.3% | viability, T/C (second compound 100 µM, first compound 0.0949 µM): 17.4% | viability, T/C (second compound 100 µM, first compound 0.3 µM): 14.6% | viability, T/C (second compound 100 µM, first compound 0.949 µM): 11.7% | viability, T/C (second compound 100 µM, first compound 3 µM): 7.45%

COc1cc(C)[nH]c(=O)c1CN1CCc2c(Cl)cc(C(OC)C3COC3)c(Cl)c2C1=O (stereo not given) + Cn1nnc2c(C(N)=O)ncn2c1=O
IC50 (second compound 1 µM): > 10 µM | IC50 (second compound 3.16 µM): > 10 µM | IC50 (second compound 10 µM): > 10 µM | IC50 (second compound 31.6 µM): > 10 µM | IC50 (second compound 100 µM): > 10 µM | viability, T/C (second compound 1 µM, first compound 0.0316 µM): 94.7% | viability, T/C (second compound 1 µM, first compound 0.1 µM): 94.7% | viability, T/C (second compound 1 µM, first compound 0.316 µM): 95.4% | viability, T/C (second compound 1 µM, first compound 1 µM): 88.7% | viability, T/C (second compound 1 µM, first compound 3.16 µM): 81.6% | viability, T/C (second compound 1 µM, first compound 10 µM): 72.6% | viability, T/C (second compound 3.16 µM, first compound 0.0316 µM): 102% | viability, T/C (second compound 3.16 µM, first compound 0.1 µM): 100% | viability, T/C (second compound 3.16 µM, first compound 0.316 µM): 93.6% | viability, T/C (second compound 3.16 µM, first compound 1 µM): 79.8% | viability, T/C (second compound 3.16 µM, first compound 3.16 µM): 88.2% | viability, T/C (second compound 3.16 µM, first compound 10 µM): 84.5% | viability, T/C (second compound 10 µM, first compound 0.0316 µM): 93.4% | viability, T/C (second compound 10 µM, first compound 0.1 µM): 87.4% | viability, T/C (second compound 10 µM, first compound 0.316 µM): 98% | viability, T/C (second compound 10 µM, first compound 1 µM): 80.2% | viability, T/C (second compound 10 µM, first compound 3.16 µM): 84.4% | viability, T/C (second compound 10 µM, first compound 10 µM): 75.2% | viability, T/C (second compound 31.6 µM, first compound 0.0316 µM): 91.5% | viability, T/C (second compound 31.6 µM, first compound 0.1 µM): 94.2% | viability, T/C (second compound 31.6 µM, first compound 0.316 µM): 89.4% | viability, T/C (second compound 31.6 µM, first compound 1 µM): 85.1% | viability, T/C (second compound 31.6 µM, first compound 3.16 µM): 78.5% | viability, T/C (second compound 31.6 µM, first compound 10 µM): 80.2% | viability, T/C (second compound 100 µM, first compound 0.0316 µM): 89.5% | viability, T/C (second compound 100 µM, first compound 0.1 µM): 91.1% | viability, T/C (second compound 100 µM, first compound 0.316 µM): 88.1% | viability, T/C (second compound 100 µM, first compound 1 µM): 78% | viability, T/C (second compound 100 µM, first compound 3.16 µM): 75.9% | viability, T/C (second compound 100 µM, first compound 10 µM): 82%

— PubChem BioAssay AID1845196 (Molecular Pharmacology Branch, DTP, NCI, 2023)
